We go through 8 molecules from US12653805B2, “Targeting LASP1, eIF4A1, eIF4B and CXC4 with modulators and combinations thereof for cancer therapy” (The University of Toledo, priority 2019, dated 2026).

In one series the test system is SUM-159-PT TNBC cells. Description: Evaluation of paclitaxel-resistant SUM-159-PT cells. The format is cell-based, human. The procedure:
(§1) Briefly, to assess the cell viability, 3×10^3 cells/well (SUM-159PT, SUM Pac 200 nM, MDA-Bone-Un eIF4A CC and KO) were seeded and the cells were allowed to attach and spread overnight under adherent or non-adherent low attachment conditions.

The test system of the next series is SUM-159PT cells. Description: Immunoblotting of SUM-159PT cells after chronic paclitaxel treatment (Pac 200).
Series [1] deals with paclitaxel-resistant SUM-159PT cells. Description: Chemosensitivity to paclitaxel of CRISPR control and eIF4A1-KO cells derived from paclitaxel-resistant SUM-159PT (CellTiter-Glo). The format is cell-based, human. To be noted: 48 h; for IC50: Homo sapiens, SUM-159-PT. As to the method:
as §1
For generation of CRISPR/Cas9-mediated eIF4A1 knockout (KO), a set of CRISPR/Cas9 plasmids (Santa Cruz, Dallas, Tex., Cat. #—sc-402623) were transfected into therapy-naïve and paclitaxel-resistant tumor cells using UltraCruz reagent (Santa Cruz, Dallas, Tex., Cat. #— sc-395739) following the manufacturer's instructions. After 24 h, the supernatant was removed and replaced with regular media and cells were further cultured for a total of 72 h. eIF4A1 KO cells were sorted out based on the expression of green fluorescent protein (GFP). Single KO cells were isolated by limiting dilution in 96-well plates. The KO was verified by immunoblotting for eIF4A. Non-targeting CRISPR/Cas9 plasmids were employed to obtain the CRISPR-control cells (Santa Cruz, Dallas, Tex., Cat. #—sc-418922).

The next series has as its target T1, eIF4A1 (Homo sapiens, UniProt P60842).
T1 construct: A GQ-5′-UTR dual reporter was created in breast cancer cell lines; endogenous in cells
It is filed as cell-based. To be noted: 3 different TNBC cell lines. The text has this: A GQ-5′-UTR dual reporter was created in breast cancer cell lines which would report either a reduction in td-Tomato fluorescence or luciferase activity if eIF4A1 is inhibited by any of the compounds in the Prestwick library (FIGS. 26A-26B).

Series [2] concerns LASP1-eIF4A interaction in 231S cells. In words: Proximity ligation assay (PLA) of LASP1-eIF4A interaction. It is filed as cell-based, human. To be noted: 100 nM AMD3465 30 min prior to 20 nM CXCL12 5 min. As to the method:
The Duolink In Situ Orange Fluorescent kit (Sigma/Aldrich, St. Louis, Mo., Cat. No. DUO92102-1KT) was employed to detect the endogenous interaction between LASP1 and eIF4A in situ in 231S cells. The PLA was performed according to the manufacturer's instructions using a rabbit eIF4A1 antibody (Cohesion Biosciences, London, Purley, Cat. No. CQA1180) and a mouse LASP1 antibody (Biolegend, San Diego, Calif., Cat. No. 909301). The single Ab control condition represents the PLA reaction with only the LASP1 antibody. In addition, cells were stained with phalloidin (Life Technologies, Carlsbad, Calif., Cat. No. A12379) and nuclei with DRAQ5 (Thermo Scientific, Rockford, Ill., Cat No. 62251). Cells were stimulated and inhibited as described. Moreover, cells were fixed, stained, and permeabilized with standard methods. The images were acquired by two-photon confocal microscopy and processed with Leica Application Suite X software (Leica, Wetzlar, Germany). Quantification of the interaction dots was performed using ImageJ.

The subject of series [3] is eIF4F complex in 231S cells. In words: m7GTP pulldown assay (eIF4F complex). It is filed as cell-based, human. As to the method:
231S cells were serum starved for 1 h and cells were stimulated (and prepared) as described in the co-immunoprecipitation section. 100 nM AMD3465 (CXCR4 antagonist, Sigma-Aldrich, St. Louis, Mo., Cat. No. SML1433-5MG) was incubated 30 min prior to stimulation. 1 mg of total protein lysate in 1 mL of Co-IP buffer was incubated with 25 μL of m7-GTP agarose beads overnight at 4° C. (Jena Biosciences, Jena, Germany, Cat. No. AC-155S). Following incubation, beads were washed with Co-IP buffer. Protein was eluted and analyzed by SDS-PAGE and Western blotting.

Series [4] relates to CXCR4 signaling in 231S cells. In words: Western blotting of phosphorylation of eIF4B, PDCD4, 4E-BP1 after CXCR4 activation. The format is cell-based, human. As to the method:
Cell lysates were prepared and quantified as described. Western blots were incubated with the following 1° Abs: Cyclin D1 (Cell Signaling Technology, Danvers, Mass., Cat. No. 2922), eIF4A C32B4 (Cell Signaling Technology, Danvers, Mass., Cat. No. 2013), eIF4B 1F5 (Cell Signaling Technology, Danvers, Mass., Cat. No. 13088), p-eIF4B S422 (Thermo Scientific, Rockford, Ill., Cat No. PA5-38362), eIF4E C46H6 (Cell Signaling Technology, Danvers, Mass., Cat. No. 2067), eIF4G C45A4 (Cell Signaling Technology, Danvers, Mass., Cat. No. 2469), GST 26H1 (Cell Signaling Technology, Danvers, Mass., Cat. No. 2624), LASP1 8C6 (Biolegend, San Diego, Calif., Cat. No. 909301), MDM2 SMP14 (Santa Cruz Biotechnology, Dallas, Tex., Cat. No. sc-965), PDCD4 D29C6 (Cell Signaling Technology, Danvers, Mass., Cat. No. 9535), p-PDCD4 S67 (Sigma-Aldrich, St. Louis, Mo., Cat. No. P0072), ROCK1 C8F7 (Cell Signaling Technology, Danvers, Mass., Cat. No. 4035), survivin 71G4B7 (Cell Signaling Technology, Danvers, Mass., Cat. No. 2808), 4E-BP1 53H11 (Cell Signaling Technology, Danvers, Mass., Cat. No. 9644), p-4E-BP1 Thr70 (Cell Signaling Technology, Danvers, Mass., Cat. No. 9455), and β-tubulin D66 (Sigma/Aldrich, St. Louis, Mo., Cat. No. T0198). Following primary incubation, Western blots were incubated with Goat anti-Mouse IgG (H+L) Superclonal™ Secondary Ab conjugated to HRP (Thermo Scientific, Rockford, Ill., Cat No. A28177) or Goat anti-Rabbit IgG (H+L) Superclonal™ Secondary Ab conjugated to HRP (Thermo Scientific, Rockford, Ill., Cat No. A27036). Finally, blots were developed with Amersham™ ECL™ Prime Western Blotting Detection Reagent (GE Healthcare Life Sciences, Pittsburgh, Pa., Cat. No. RPN2232) and HyBlot ES™ Autoradiography Film (Denville Scientific, Swedesboro, N.J., Cat. No. E3212). Densitometry of the Western blots was performed using ImageJ. Calculation of fold change is given in the figure legend for each experiment.

Series [5] deals with triple-negative breast cancer (TNBC) cells. In words: Cell viability studies with CAST compounds. The format is cell-based. To be noted: for concentration level at which efficacy on tumor cell viability was shown: TNBC cell viability.
For a further series, the system named is BCSCs. To be noted: cited from earlier work.
Where [6] appears, read: Pac 200 vs therapy naïve SUM-159PT.
The mark [7] stands for this setting: paclitaxel-resistant vs therapy-naïve SUM-159-PT.

T1 sequence (P60842 whole entry): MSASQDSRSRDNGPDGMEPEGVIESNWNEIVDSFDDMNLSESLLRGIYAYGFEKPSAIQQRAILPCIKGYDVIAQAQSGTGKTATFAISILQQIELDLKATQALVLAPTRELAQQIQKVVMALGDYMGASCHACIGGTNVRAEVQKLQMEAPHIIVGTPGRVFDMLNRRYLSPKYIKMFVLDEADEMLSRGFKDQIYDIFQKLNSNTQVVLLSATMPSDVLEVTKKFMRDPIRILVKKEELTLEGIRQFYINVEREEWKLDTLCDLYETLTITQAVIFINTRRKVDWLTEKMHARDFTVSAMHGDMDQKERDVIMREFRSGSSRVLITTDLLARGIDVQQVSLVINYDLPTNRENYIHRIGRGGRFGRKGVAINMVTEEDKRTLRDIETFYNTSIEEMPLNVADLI

Consider `CC(=O)O[C@H]1C(=O)[C@@]2(C)[C@H]([C@H](OC(=O)c3ccccc3)[C@]3(O)C[C@H](OC(=O)[C@H](O)[C@@H](NC(=O)c4ccccc4)c4ccccc4)C(C)=C1C3(C)C)[C@]1(OC(C)=O)CO[C@@H]1C[C@@H]2O` [paclitaxel], for which, in the series on SUM-159-PT TNBC cells (Homo sapiens, SUM-159-PT, parental SUM-159-PT cells, paclitaxel), the IC50 is 0.002 µM. Besides, the resistance factor with SUM-159-PT TNBC cells (paclitaxel-resistant vs parental SUM-159-PT) was found to be 675.5 fold. In the series on SUM-159PT cells (setting [6]), the “enhanced expression of Cyclin D3” value was 2.7 fold, the “enhanced expression of NANOG” value is given as 1.4 fold, the “enhanced expression of OCT4” value is given as 3 fold and the “enhanced expression of SOX2” value is listed as 2.7 fold. In the series on SUM-159PT cells (setting [6]), the “enhanced expression of survivin or BIRC5” value worked out at 4 fold; the “increase in ABCB1 (P-glycoprotein, MDR1) protein level” value came to 10.8 fold; the “increase in ABCG2 (BCRP) protein level” value turned out to be 2.4 fold; the “increase in ALDH1A1 level” value was 2.4 fold. For the same molecule, in the series with SUM-159PT cells (setting [6]), the “increase in CD44 level” value amounted to 6.1 fold and the “increase in expression of eIF4A” value was 25.8 fold. Besides, the “enhanced expression of ROCK1” value in the series on SUM-159PT cells (Pac 200 vs therapy naïve SUM-159PT, not statistically significant) was found to be 1.5 fold. In addition, in the series with SUM-159PT cells (setting [7]), the “expression of E-cadherin” value is “decreasing trend” and the “increase in Snail1 protein level” value is recorded as 2 fold. Besides, the “increase in ABCB1 protein level, independent verification” value in the series with SUM-159PT cells (three biological replicates, p<0.0001) worked out at 14 fold. The “increase in ABCG2 protein level, independent verification” value in the series with SUM-159PT cells (three biological replicates, p<0.001) is recorded as 4 fold. The same molecule gave an IC50 in series [1] (CRISPR-control SUM-159PT cells (from Pac 200)) of 0.904 µM. Also, in series [1] (eIF4A1-KO cells (from Pac 200)), it took 0.609 µM to reach half-maximal inhibition (IC50). The “change in IC50, eIF4A1-KO vs CRISPR-control” value in series [1] (paclitaxel) is −1.5 fold.
As to `CC(=O)O[C@H]1C[C@H](O[C@H]2[C@@H](O)C[C@H](O[C@H]3[C@@H](O)C[C@H](O[C@H]4CC[C@@]5(C)[C@H](CC[C@@H]6[C@@H]5C[C@@H](O)[C@]5(C)[C@@H](C7=CC(=O)OC7)CC[C@]65O)C4)O[C@@H]3C)O[C@@H]2C)O[C@H](C)[C@H]1O[C@@H]1O[C@H](CO)[C@@H](O)[C@H](O)[C@H]1O` [lanotoside C], on eIF4A1, the “activity of eIF4A1” value was “potently inhibited”.
On to `c1ccc(CNCc2ccc(CN3CCCNCCNCCCNCC3)cc2)nc1` [AMD3465], for which the “LASP1-eIF4A interaction dots (interactions/cell)” value in [2] is 13.3±10.2 dots. The “effect on peak eIF4G recruitment at 5 min of CXCL12” value in series [3] (100 nM AMD3465) is “reduced”. For the same molecule, the “effect on CXCL12-dependent recruitment of LASP1 at 5 min” value in [3] (pre-treatment 100 nM AMD3465) is recorded as “abrogated”. In addition, in series [4] (AMD3465), the “effect on CXCL12-induced increase in p-eIF4B levels at 10 min” value is on record as “abrogated” and the “effect on CXCL12-induced increase in pT70-4E-BP1 levels” value is on record as “abrogated”. In addition, in series [4] (AMD3465 pretreatment), the “effect on CXCL12-induced increase in pS67-PDCD4 level at 5 min” value is listed as “abrogated”.
As for `O=C(N/C(=C/c1cccnc1)c1nc2ccccc2[nH]1)c1cccc(Br)c1` [AE-848/14270010], the cytotoxicity at 50 µM in series [5] (CRISPR/control cells, lowest concentration of 50 μM, read-out: loss of viability of TNBC cells) is roughly 35%. The molecule also had a viability at 50 µM in series [5] (LASP1-knockout cells, 50 μM) of 50%. In addition, the loss of viability in series [5] (LASP1 genetically knocked out) amounted to 50%. The “concentration level at which efficacy on tumor cell viability was shown” value in [5] worked out at 50 µM. The cell viability change result in [5] (eIF4A1 knocked out cells) is “gain in viability”.
`COc1cccc2c1C(=O)c1c(O)c3c(c(O)c1C2=O)C[C@@](O)(C(=O)CO)C[C@@H]3O[C@H]1C[C@H](N)[C@H](O)[C@H](C)O1` [doxorubicin]: the “cross-resistance of paclitaxel-resistant cells” value in the series on SUM-159-PT TNBC cells (paclitaxel-resistant SUM-159-PT cells) is “cross-resistant”.
Take `Clc1ccccc1COc1ccc2ccccc2c1CNCc1cccnc1` [AN-465/41673523]: the “concentration level at which efficacy on tumor cell viability was shown” value in series [5] was 75 µM.
Regarding `C[C@]12CC[C@H](O)C[C@H]1CC[C@@H]1[C@@H]2CC[C@]2(C)[C@@H](C3=CC(=O)OC3)CC[C@]12O` [digitoxigenin], the “activity of eIF4A1” value on eIF4A1 is on record as “potently inhibited”.
Regarding `O=C(O)C(Cc1ccccc1[N+](=O)[O-])=NNc1nc(-c2ccc(Cl)c(Cl)c2)cs1` (mixture of isomers) [4EGI-1], the “NANOG, OCT4 levels” value in the series on BCSCs (4EGI-1 treated BCSCs) is “downregulated”. Besides, in the series with BCSCs, the “proliferation of BCSCs” value is on record as “effectively inhibited”.
